According to ChEMBL document CHEMBL3399940, “Synthesis and antimalarial evaluation of prodrugs of novel fosmidomycin analogues” (Bioorg Med Chem Lett, 2015):
pIC50: −log10 of the molar value.

Tests used:
Plasmodium falciparum = assay: Antimalarial activity against chloroquine and mefloquine-resistant Plasmodium falciparum Dd2 after 48 hrs by SYBR Green I assay; format: functional; details: for pIC50: Plasmodium falciparum, Dd2, 48 h, read-out: IC50
[1] = Cytotoxicity against human HepG2A16 cells after 24 hrs by MTT assay; format: cell-based; details: read-out: LD50

Question: With `O[C@@H](c1cc(C(F)(F)F)nc2c(C(F)(F)F)cccc12)[C@H]1CCCCN1` [(S,R)-MEFLOQUINE] as the compound, how does the pIC50 (Plasmodium falciparum) read?
Answer: The pIC50 was 7.04.

Question: Which results are given for `CCOP(=O)(OCC)C1CCN(OCc2ccccc2)C(=O)C1` (centres undefined)?
Answer: IC50 (Plasmodium falciparum): Not Active; CC50 at 24 h [1]: 25600 nM

Question: With `CC(C)(C)C(=O)OCOP(=O)(OCOC(=O)C(C)(C)C)C1CCCN(O)C(=O)C1` (centres undefined) as the compound, how does the pIC50 (Plasmodium falciparum) read?
Answer: Its pIC50 is 5.65.

Question: What about the CC50 at 24 h [1] of the same compound?
Answer: Its CC50 at 24 h is 20100 nM.

Question: With `CC(=O)N(O)CCCP(=O)(O)O` as the compound, how does the pIC50 (Plasmodium falciparum) read?
Answer: Its pIC50 is 6.05.

Question: With `CC(=O)N(O)CCCP(=O)(OCOC(=O)C(C)(C)C)OCOC(=O)C(C)(C)C` as the compound, how does the pIC50 (Plasmodium falciparum) read?
Answer: The pIC50 was 6.57.

Question: With `CC(C)(C)C(=O)OCOP(=O)(OCOC(=O)C(C)(C)C)C1CCN(O)C(=O)C1` (centres undefined) as the compound, how does the pIC50 (Plasmodium falciparum) read?
Answer: The pIC50 was 7.56.

Question: What about the CC50 at 24 h [1] of the same compound?
Answer: Its CC50 at 24 h is 25600 nM.
